Data reported in US20110104055A1, “SUBSTITUTED N-ARYL BENZAMIDES AND RELATED COMPOUNDS FOR TREATMENT OF AMYLOID DISEASES AND SYNUCLEINOPATHIES” (priority 2002, published 2011).

How the values were obtained:
Type in all cases: biochemical
α-synuclein fibrils [1] = target: T1, α-synuclein fibrils (Homo sapiens, UniProt P37840); test: Congo red binding assay, α-synuclein fibrils (Example 12); details: 3-day incubation
T1 construct: purchased rPeptide
Experimental: (§1) In the Congo red binding assay, the ability of a given test compound to alter amyloid (in this case, α-synuclein) binding to Congo red is quantified. In this assay, α-synuclein and test compounds were incubated for 3 days and then vacuum filtered through a 0.2 μm filter. The amount of α-synuclein retained in the filter was then quantitated following staining of the filter with Congo red. After appropriate washing of the filter, any lowering of the Congo red color on the filter in the presence of the test compound (compared to the Congo red staining of the amyloid protein in the absence of the test compound) was indicative of the test compound's ability to diminish/alter the amount of aggregated and congophilic α-synuclein.
In one study, the ability of α-synuclein fibrils to bind Congo red in the absence or presence of increasing amounts of compounds DC-0051-F1, F2, F3, F4, F5, F6 and EDTA (at α-synuclein:test compound weight ratios of 1:1, 1:0.1, 1:0.01 or 1:0.001) was determined.

Aβ 1-42 fibrils [2] = target: T2, Aβ 1-42 fibrils (Homo sapiens, UniProt P05067); test: Congo red binding assay, Aβ 1-42 fibrils (Example 11); details: 3-day incubation
T2 construct: purchased Bachem Inc
T2 sequence (P05067 672-713): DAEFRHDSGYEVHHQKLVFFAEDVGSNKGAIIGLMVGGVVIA
Experimental: as §1, with “a” for “a given”, “Aβ)” for “α-synuclein)”, “Aβ 1-42” for “α-synuclein”, “Aβ.” for “α-synuclein.”
In one study, the ability of Aβ fibrils to bind Congo red in the absence or presence of increasing amounts of the compounds or EDTA (at Aβ:test compound weight ratios of 1:1, 1:0.1, 1:0.01 or 1:0.001) was determined.

α-synuclein fibrils [3] = target: T1, α-synuclein fibrils; test: Thioflavin T fluorometry, disruption of pre-formed α-synuclein fibrils (Example 12); details: 3 days; for disruption/disassembly of pre-formed α-synuclein fibrils, in words: Thioflavin T fluorometry, all concentrations tested; for % Inhibition α-synuclein (result ± S.D.), Thioflavin T fluorometry: 30 μg pre-fibrillized α-synuclein, 37° C.
Experimental: In this assay, Thioflavin T binds specifically to α-synuclein fibrils, and this binding produces a fluorescence enhancement at 485 nm that is directly proportional to the amount of α-synuclein fibrils present. The higher the fluorescence, the greater the amount of α-synuclein fibrils present (Naki et al, Lab. Invest. 65:104-110, 1991; Levine III, Protein Sci. 2:404-410, 1993; Amyloid: Int. J. Exp. Clin. Invest. 2:1-6, 1995).
In this study, 30 μg of pre-fibrillized α-synuclein (rPeptide) was incubated at 37° C. for 3 days either alone or in the presence of compounds DC-0051-F1, F2, F3, F4, F5, F6 or EDTA (at α-synuclein:test compound weight ratios of 1:1, 1:0.1, 1:0.01 or 1:0.001). Following 3-days of co-incubation, 50 μl of each incubation mixture was transferred into a 96-well microtiter plate containing 150 μl of distilled water and 50 μl of a Thioflavin T solution (i.e. […] Thioflavin T in 250 mM phosphate buffer, pH 6.8). The fluorescence was read at 485 nm (444 nm excitation wavelength) using an ELISA plate fluorometer after subtraction with buffer alone or compound alone, as blank.

Aβ 1-42 fibrils [4] = target: T2, Aβ 1-42 fibrils; test: Thioflavin T fluorometry, disruption of pre-formed Aβ 1-42 fibrils (Example 11); details: 30 μg pre-fibrillized Aβ 1-42, 37° C., 3 days
Source text: In one study, Thioflavin T fluorometry was used to determine the effects of the compounds, and of EDTA (as a negative control). In this assay Thioflavin T binds specifically to fibrillar amyloid, and this binding produces a fluorescence enhancement at 485 nm that is directly proportional to the amount of amyloid fibrils formed. The higher the fluorescence, the greater the amount of amyloid fibrils formed (Naki et al., Lab. Invest. 65:104-110, 1991; Levine III, Protein Sci. 2:404-410, 1993; Amyloid: Int. J. Exp. Clin. Invest. 2:1-6, 1995).
Following 3-days of co-incubation, 50 μl of each incubation mixture was transferred into a 96-well microtiter plate containing 150 μl of distilled water and 50 μl of a Thioflavin T solution (i.e. 500 mM Thioflavin T in 250 mM phosphate buffer, pH 6.8). The fluorescence was read at 485 nm (444 nm excitation wavelength) using an ELISA plate fluorometer after subtraction with buffer alone or compound alone, as blank.

[5] = α-synuclein:test compound wt/wt ratio 1:0.001
[6] = α-synuclein:test compound wt/wt ratio 1:0.01
[7] = α-synuclein:test compound wt/wt ratio 1:0.1
[8] = α-synuclein:test compound wt/wt ratio 1:1
[9] = Aβ:test compound wt/wt ratio 1:0.001
[10] = Aβ:test compound wt/wt ratio 1:0.01
[11] = Aβ:test compound wt/wt ratio 1:0.1
[12] = Aβ:test compound wt/wt ratio 1:1

% Inhibition α-synuclein (result ± S.D.), Congo red binding (α-synuclein fibrils [1]; [5]) [%]	% Inhibition α-synuclein (result ± S.D.), Congo red binding (α-synuclein fibrils [1]; [6]) [%]	% Inhibition α-synuclein (result ± S.D.), Congo red binding (α-synuclein fibrils [1]; [7]) [%]	% Inhibition α-synuclein (result ± S.D.), Congo red binding (α-synuclein fibrils [1]; [8]) [%]	% Inhibition Aβ (result ± S.D.), Congo red binding (Aβ 1-42 fibrils [2]; [9]) [%]	% Inhibition Aβ (result ± S.D.), Congo red binding (Aβ 1-42 fibrils [2]; [10]) [%]	% Inhibition Aβ (result ± S.D.), Congo red binding (Aβ 1-42 fibrils [2]; [11]) [%]	% Inhibition Aβ (result ± S.D.), Congo red binding (Aβ 1-42 fibrils [2]; [12]) [%]	disruption/disassembly of pre-formed α-synuclein fibrils, in words (α-synuclein fibrils [3])	% Inhibition α-synuclein (result ± S.D.), Thioflavin T fluorometry (α-synuclein fibrils [3]; [5]) [%]	% Inhibition α-synuclein (result ± S.D.), Thioflavin T fluorometry (α-synuclein fibrils [3]; [6]) [%]	% Inhibition α-synuclein (result ± S.D.), Thioflavin T fluorometry (α-synuclein fibrils [3]; [7]) [%]	% Inhibition α-synuclein (result ± S.D.), Thioflavin T fluorometry (α-synuclein fibrils [3]; [8]) [%]	% Inhibition Aβ (result ± S.D.), Thioflavin T fluorometry (Aβ 1-42 fibrils [4]; [9]) [%]	% Inhibition Aβ (result ± S.D.), Thioflavin T fluorometry (Aβ 1-42 fibrils [4]; [10]) [%]	% Inhibition Aβ (result ± S.D.), Thioflavin T fluorometry (Aβ 1-42 fibrils [4]; [11]) [%]	% Inhibition Aβ (result ± S.D.), Thioflavin T fluorometry (Aβ 1-42 fibrils [4]; [12]) [%]	SMILES
0.0 ± 3.42	3.8 ± 5.82	32.9±2.97	69.8±2.67	3.7 ± 4.36	2.2 ± 7.70	27.5±2.39	80.1±2.61	dose-dependent disruption/disassembly	13.7 ± 6.06	58.4 ± 5.06	90.4 ± 2.07	100.0 ± 3.14	15.6 ± 2.01	37.1 ± 1.44	91.3 ± 1.39	98.7 ± 0.38	O=C(Nc1ccc(O)c(O)c1)c1ccc(O)c(O)c1F [DC-0051-F1, 3,4-Dihydroxy-2-fluoro-N-(3,4-dihydroxyphenyl)benzamide]
0.0 ± 4.20	1.4 ± 5.69	29.9 ± 2.41	59.8 ± 3.62	3.7 ± 3.24	6.8 ± 1.51	18.3 ± 5.32	68.0 ± 2.11	dose-dependent disruption/disassembly	4.2 ± 5.02	56.2 ± 1.49	94.7 ± 0.68	100.0 ± 1.98	9.6 ± 0.96	36.8 ± 3.43	88.0 ± 1.09	99.4 ± 0.86	O=C(Nc1ccc(O)c(O)c1F)c1ccc(O)c(O)c1 [DC-0051-F6, N-(2-fluoro-3,4-dihydroxyphenyl)-3,4-dihydroxybenzamide]
0.0 ± 1.01	5.0 ± 5.47	32.7 ± 3.96	69.4 ± 0.13	0.0 ± 2.50	9.8 ± 2.54	25.7 ± 5.69	69.9 ± 2.06	dose-dependent disruption/disassembly	5.9 ± 10.41	59.0 ± 1.18	94.7 ± 1.70	98.9 ± 0.65	19.5 ± 1.49	43.9±2.01	91.8±0.22	99.8 ± 0.40	O=C(Nc1cc(O)c(O)cc1F)c1ccc(O)c(O)c1 [DC-0051-F5, N-(2-fluoro-4,5-dihydroxyphenyl)-3,4-dihydroxybenzamide]
0.0 ± 6.71	3.7 ± 2.83	36.5±53.4	67.8±3.52	4.9 ± 7.88	0.5 ± 5.24	49.9±9.13	80.1±3.79	dose-dependent disruption/disassembly	15.9 ± 7.20	61.1±1.37	94.7±2.57	100.0 ± 1.49	17.1 ± 4.32	53.7±6.29	95.9±0.88	99.6 ± 0.55	O=C(Nc1ccc(O)c(O)c1)c1cc(O)c(O)cc1F [DC-0051-F2, N-(3,4-dihydroxyphenyl)-2-fluoro-4,5-dihydroxy benzamide]
6.1 ± 8.92	0.0 ± 3.44	18.0 ± 0.58	64.8 ± 5.08	4.3 ± 11.81	8.8 ± 5.07	10.9 ± 5.05	71.0 ± 2.39	dose-dependent disruption/disassembly	6.1 ± 9.44	40.6 ± 1.49	94.3 ± 1.22	100.0 ± 2.84	16.0 ± 6.64	33.4 ± 2.09	79.8 ± 0.77	99.7 ± 0.58	O=C(Nc1cc(O)c(O)c(F)c1)c1ccc(O)c(O)c1 [DC-0051-F4, N-(3-fluoro-4,5-dihydroxyphenyl)-3,4-dihydroxybenzamide]
